In brackets after ≈: the same amount, converted by molar mass. Values belong to the compound of their own block, whether it stands above or below them.
Assays:
[1] = system: INS-1 β-cells; test: Palmitate-induced cell death protection assay (PI fluorescence plate reader); type: cell-based, rat; conditions: PA 0.25 mM, 24 h
Protocol: A 7.1 mM palmitic acid stock solution was prepared in 95% ethanol by incubating at 37°C. In parallel, 2% fatty-acid-free BSA was solubilized in sterile nanopure water at 37°C. The palmitic acid/BSA complex solution was then prepared by incubating the components in a molar ratio of 5:1 at 37°C in a shaking water bath for 1 h and was used directly for INS-1 stimulation experiments. Control cultures were carried out in the presence of BSA/ethanol in RPMI without palmitic acid.
Quantification of β-cell death by PI staining was carried out on a fluorescence plate reader. Following a 2 h preincubation under serum-free conditions, INS-1 cells (60k cells/well, 96-well plate (COSTAR ref # 3603)) were kept for 24 h in Phenol Red-free FBS-free RPMI 0.5% BSA as a control or containing 0.25 mM PA-BSA in the presence or absence of treatment. Cells were stained for 10 min at 4°C with propidium iodide (PI) at 1 μg/ml (added to the existing media to avoid loss of dead cells). PI fluorescence intensity was measured with a plate reader (PHERAstar, BMG Labtech).

[2] = Liver drug concentration and bioavailability after IP dosing; type: in vivo, C57BL/6J mice; conditions: IP 20 mg/kg; for liver Cmax: 8-week-old C57BL/6J mice, mean ± SEM
Protocol: Two groups of male C57BL/6J mice (21 mice/group) at 8 weeks of age were dosed IP with 20 mg/kg AdipoRon or AdipoRonPEG5, 0.2 ml/mouse formulated as 10% DMSO/10% Cremophor/20% PEG400/60% PBS. Whole blood was harvested at seven time points post IP dosing, 10 min, 30 min, 90 min, 180 min, 360 min, 960 min, and 1,440 min. Three mice were euthanized at each time point. Plasma was processed from whole blood by centrifugation of the ACD-treated blood for 10′ at 10,000 rpm in a standard centrifuge. Additionally, the liver was harvested. The tissues were weighed and snap frozen in liquid nitrogen.
To measure liver drug concentration and bioavailability, we prepared standards by adding 98 μl blank liver homogenate to an Eppendorf, spiked with 2 μl of initial standard. For QCs, we added 98.8 μl blank liver homogenate to an Eppendorf, spiked with 1.2 μl of initial standard. For samples, we mixed 100 μl liver homogenate with 200 μl of methanol containing 0.15% formic acid and 75 ng/ml IS (IS final conc. = 50 ng/ml). The samples were vortexed 15 s, incubated at room temp for 10′, and spun 2× 13,200 rpm in a standard microcentrifuge. The supernatant was then analyzed by LC-MS/MS.

[3] = system: wild-type mice; test: Cold exposure (4°C): body temperature, scWAT histology, qPCR; type: in vivo, mouse
Protocol: In total, 5 mg/Kg of PBS and AdipoRonPEG5 were injected twice a day for 5 days at room temperature followed by housing in the cold chamber (4°C) for 7 days. Body temperature was measured at 0, 1, 2, 3, 4, and 5 h time point at the first day of cold exposure. In total, 5 mg/Kg of PBS and AdipoRonPEG5 were injected once a day for 7 days after cold exposure followed by harvesting tissues for qPCR analysis.

[4] = system: ceramidase; test: Ceramidase activity assay in lysate of treated INS1 cells; type: cell-based, rat; conditions: INS1 cells treated 20 μM 24 h
Protocol: INS1 cells were cultured in 10 cm dish and treated with AdipoRon or AdipoRonPEG5 (20 μM) for 24 h. Remove the media and collect cells using a cell scraper and transfer cells to a 1.5 ml tube. Centrifuge to spin down the cells before freezing in liquid nitrogen. Cell pellets were stored at –80°C till analysis. During analysis, INS1 cell pellets on dry ice were mixed with 500 μl of Dulbecco PBS with Ca^2+ and Mg^2+. The sample was then immediately placed on ice and lysed with a tissue disruptor probe (Fisher Scientific, Model FB50, Waltham MA) by performing five short disruption cycles at a power of 30% (3 s each cycle). Briefly perform a gentle vortexing of the vial. Take an aliquot of 50 μl of sample for protein determination (Pierce™ BCA Protein Assay Kit, Thermo Fisher Scientific). In total, 400 μl of lysate was transferred to a culture borosilicate glass tube containing 1.6 ml of Dulbecco PBS with Ca^2+ and Mg^2+ on ice. […] All the samples and serial dilutions were analyzed by injecting 1 μl in the LC-MS/MS system: Shimadzu LCMS-8060 triple-quadrupole mass spectrometer coupled to a Nexera X2 UHPLC chromatograph (Shimadzu Scientific Instruments, Columbia, MD) operating the dual ion source (DUIS) in electrospray positive ionization mode. […]

[5] = set-up: method as in https://www.caymanchem.com/pdfs/15941.pdf; conditions: ref https://www.caymanchem.com/pdfs/15941.pdf; cited from earlier work

Structure (SMILES): O=C(COc1ccc(C(=O)c2ccccc2)cc1)NC1CCN(Cc2ccc(OCCOCCOCCOCCOCCO)cc2)CC1 [AdipoRonPEG5]
- reduction of PA-induced apoptosis ([1]; 20 μM): ~50%
- protective activity against PA-induced cell death ([1]; dose range): potent antiapoptotic activity
- higher bioavailability in the liver than AdipoRon [2]: eightfold
- liver Cmax [2]: 25509.73 ± 1436.44 ng/mL
- subcutaneous adipose tissue histology after cold exposure ([3]; 5 mg/kg, 4°C): resembling beige adipocytes
- body temperature after acute cold exposure ([3]; 5 mg/kg, 5 days treatment, 4°C): significantly higher body temperature
- T-cadherin (CDH13) expression ([3]; scWAT and BAT after cold exposure, qPCR): upregulated expression
- ceramidase activity / labeled ceramide levels in cell lysate [4]: reduced levels of labeled ceramides

- liver Cmax [2]: 3169.30 ± 1437.09 ng/mL
Structure (SMILES): O=C(COc1ccc(C(=O)c2ccccc2)cc1)NC1CCN(Cc2ccccc2)CC1 [AdipoRon]
- protection from PA-induced cell death ([1]; 20 μM): further modest increase in protection
- ceramidase activity / labeled ceramide levels in cell lysate [4]: remained essentially the same as untreated control
- solubility in neutral phosphate buffer containing >30% DMSO [5]: 250 µg/mL (≈ 583 µM)

Reference: article PMC8327158, “PEGylated AdipoRon derivatives improve glucose and lipid metabolism under insulinopenic and high-fat diet conditions” (Journal of Lipid Research, 2021)
